# Results from ChEMBL document CHEMBL3045511, “Effects of Two Isoflavonoids, Osajin and Pomiferin, from Maclura pomifera for Growth and Feeding Disruption in Ostrinia nubilalis” (2001).
# What was measured:
# Format in all cases: functional
# [1] = test system: Ostrinia nubilalis; test: Antifeedant activity against Ostrinia nubilalis (European corn borer) larvae assessed as amount of weight gain by the insect at 0.20% of diet dry weight after 5 days relative to control
# [2] = test system: Ostrinia nubilalis; test: Antifeedant activity against Ostrinia nubilalis (European corn borer) larvae assessed as amount of weight gain by the insect at 0.40% of diet dry weight after 5 days relative to control
# [3] = test system: Ostrinia nubilalis; test: Antifeedant activity against Ostrinia nubilalis (European corn borer) larvae assessed as amount of weight gain by the insect at 0.60% of diet dry weight after 5 days relative to control
# [4] = test system: Ostrinia nubilalis; test: Antifeedant activity against Ostrinia nubilalis (European corn borer) larvae assessed as amount of weight gain by the insect at 0.80% of diet dry weight after 5 days relative to control
# [5] = test system: Ostrinia nubilalis; test: Antifeedant activity against Ostrinia nubilalis (European corn borer) larvae assessed as amount of food consumed at 0.10% of diet dry weight after 5 days relative to control
# [6] = test system: Ostrinia nubilalis; test: Antifeedant activity against Ostrinia nubilalis (European corn borer) larvae assessed as amount of food consumed at 0.20% of diet dry weight after 5 days relative to control
# [7] = test system: Ostrinia nubilalis; test: Antifeedant activity against Ostrinia nubilalis (European corn borer) larvae assessed as amount of food consumed at 0.40% of diet dry weight after 5 days relative to control
# [8] = test system: Ostrinia nubilalis; test: Antifeedant activity against Ostrinia nubilalis (European corn borer) larvae assessed as amount of food consumed at 0.60% of diet dry weight after 5 days relative to control
# [9] = test system: Ostrinia nubilalis; test: Antifeedant activity against Ostrinia nubilalis (European corn borer) larvae assessed as amount of food consumed at 0.80% of diet dry weight after 5 days relative to control
# [10] = test system: Ostrinia nubilalis; test: Antifeedant activity against Ostrinia nubilalis (European corn borer) larvae assessed as feeding rate at 0.80% of diet dry weight after 5 days relative to control
# [11] = test system: Ostrinia nubilalis; test: Antifeedant activity against Ostrinia nubilalis (European corn borer) larvae assessed as amount excreted at 0.10% of diet dry weight after 5 days relative to control
# [12] = test system: Ostrinia nubilalis; test: Antifeedant activity against Ostrinia nubilalis (European corn borer) larvae assessed as amount excreted at 0.20% of diet dry weight after 5 days relative to control
# [13] = test system: Ostrinia nubilalis; test: Antifeedant activity against Ostrinia nubilalis (European corn borer) larvae assessed as amount excreted at 0.40% of diet dry weight after 5 days relative to control
# [14] = test system: Ostrinia nubilalis; test: Antifeedant activity against Ostrinia nubilalis (European corn borer) larvae assessed as amount excreted at 0.60% of diet dry weight after 5 days relative to control
# [15] = test system: Ostrinia nubilalis; test: Antifeedant activity against Ostrinia nubilalis (European corn borer) larvae assessed as amount excreted at 0.80% of diet dry weight after 5 days relative to control
# [16] = test system: Ostrinia nubilalis; test: Antifeedant activity against Ostrinia nubilalis (European corn borer) larvae assessed as amount of weight gain by the insect at 0.10% of diet dry weight after 5 days relative to control
# [17] = test system: Ostrinia nubilalis; test: Effect on growth of female Ostrinia nubilalis (European corn borer) larvae assessed as pupal weight at 0.10% of diet dry weight after 6 days relative to control
# [18] = test system: Ostrinia nubilalis; test: Effect on growth of male Ostrinia nubilalis (European corn borer) larvae assessed as pupal weight at 0.10% of diet dry weight after 6 days relative to control
# [19] = test system: Ostrinia nubilalis; test: Effect on growth of female Ostrinia nubilalis (European corn borer) larvae assessed as pupal weight at 1% of diet dry weight after 6 days relative to control
# [20] = test system: Ostrinia nubilalis; test: Effect on growth of male Ostrinia nubilalis (European corn borer) larvae assessed as pupal weight at 1% of diet dry weight after 6 days relative to control
# [21] = test system: Ostrinia nubilalis; test: Effect on growth of female Ostrinia nubilalis (European corn borer) larvae assessed as larval duration at 0.001% of diet dry weight after 6 days relative to control
# [22] = test system: Ostrinia nubilalis; test: Effect on growth of male Ostrinia nubilalis (European corn borer) larvae assessed as larval duration at 0.001% of diet dry weight after 6 days relative to control
# [23] = test system: Ostrinia nubilalis; test: Effect on growth of female Ostrinia nubilalis (European corn borer) larvae assessed as larval duration at 0.01% of diet dry weight after 6 days relative to control
# [24] = test system: Ostrinia nubilalis; test: Effect on growth of male Ostrinia nubilalis (European corn borer) larvae assessed as larval duration at 0.01% of diet dry weight after 6 days relative to control
# [25] = test system: Ostrinia nubilalis; test: Effect on growth of female Ostrinia nubilalis (European corn borer) larvae assessed as larval duration at 0.10% of diet dry weight after 6 days relative to control
# [26] = test system: Ostrinia nubilalis; test: Effect on growth of male Ostrinia nubilalis (European corn borer) larvae assessed as larval duration at 0.10% of diet dry weight after 6 days relative to control
# [27] = test system: Ostrinia nubilalis; test: Effect on growth of female Ostrinia nubilalis (European corn borer) larvae assessed as larval duration at 1% of diet dry weight after 6 days relative to control
# [28] = test system: Ostrinia nubilalis; test: Effect on growth of male Ostrinia nubilalis (European corn borer) larvae assessed as larval duration at 1% of diet dry weight after 6 days relative to control
# [29] = test system: Ostrinia nubilalis; test: Antifeedant activity against Ostrinia nubilalis (European corn borer) larvae assessed as excretion rate at 0.10% of diet dry weight after 5 days relative to control
# [30] = test system: Ostrinia nubilalis; test: Antifeedant activity against Ostrinia nubilalis (European corn borer) larvae assessed as excretion rate at 0.20% of diet dry weight after 5 days relative to control
# [31] = test system: Ostrinia nubilalis; test: Antifeedant activity against Ostrinia nubilalis (European corn borer) larvae assessed as excretion rate at 0.40% of diet dry weight after 5 days relative to control
# [32] = test system: Ostrinia nubilalis; test: Antifeedant activity against Ostrinia nubilalis (European corn borer) larvae assessed as excretion rate at 0.60% of diet dry weight after 5 days relative to control
# [33] = test system: Ostrinia nubilalis; test: Antifeedant activity against Ostrinia nubilalis (European corn borer) larvae assessed as excretion rate at 0.80% of diet dry weight after 5 days relative to control
# [34] = test system: Ostrinia nubilalis; test: Antifeedant activity against Ostrinia nubilalis (European corn borer) larvae assessed as growth rate at 0.10% of diet dry weight after 5 days relative to control
# [35] = test system: Ostrinia nubilalis; test: Antifeedant activity against Ostrinia nubilalis (European corn borer) larvae assessed as growth rate at 0.20% of diet dry weight after 5 days relative to control
# [36] = test system: Ostrinia nubilalis; test: Antifeedant activity against Ostrinia nubilalis (European corn borer) larvae assessed as growth rate at 0.40% of diet dry weight after 5 days relative to control
# [37] = test system: Ostrinia nubilalis; test: Antifeedant activity against Ostrinia nubilalis (European corn borer) larvae assessed as growth rate at 0.60% of diet dry weight after 5 days relative to control
# [38] = test system: Ostrinia nubilalis; test: Antifeedant activity against Ostrinia nubilalis (European corn borer) larvae assessed as growth rate at 0.80% of diet dry weight after 5 days relative to control
# [39] = test system: Ostrinia nubilalis; test: Antifeedant activity against Ostrinia nubilalis (European corn borer) larvae assessed as feeding rate at 0.10% of diet dry weight after 5 days relative to control
# [40] = test system: Ostrinia nubilalis; test: Antifeedant activity against Ostrinia nubilalis (European corn borer) larvae assessed as feeding rate at 0.20% of diet dry weight after 5 days relative to control
# [41] = test system: Ostrinia nubilalis; test: Antifeedant activity against Ostrinia nubilalis (European corn borer) larvae assessed as feeding rate at 0.40% of diet dry weight after 5 days relative to control
# [42] = test system: Ostrinia nubilalis; test: Antifeedant activity against Ostrinia nubilalis (European corn borer) larvae assessed as feeding rate at 0.60% of diet dry weight after 5 days relative to control
# [43] = test system: Ostrinia nubilalis; test: Insecticidal activity against Ostrinia nubilalis (European corn borer) larvae assessed as mortality at 0.10 to 0.80% of diet dry weight after 5 days relative to control
# [44] = test system: Ostrinia nubilalis; test: Effect on growth of female Ostrinia nubilalis (European corn borer) larvae assessed as adult emergence at 0.001% of diet dry weight after 6 days relative to control
# [45] = test system: Ostrinia nubilalis; test: Effect on growth of male Ostrinia nubilalis (European corn borer) larvae assessed as adult emergence at 0.001% of diet dry weight after 6 days relative to control
# [46] = test system: Ostrinia nubilalis; test: Effect on growth of female Ostrinia nubilalis (European corn borer) larvae assessed as adult emergence at 0.01% of diet dry weight after 6 days relative to control
# [47] = test system: Ostrinia nubilalis; test: Effect on growth of male Ostrinia nubilalis (European corn borer) larvae assessed as adult emergence at 0.01% of diet dry weight after 6 days relative to control
# [48] = test system: Ostrinia nubilalis; test: Effect on growth of female Ostrinia nubilalis (European corn borer) larvae assessed as adult emergence at 0.10% of diet dry weight after 6 days relative to control
# [49] = test system: Ostrinia nubilalis; test: Effect on growth of male Ostrinia nubilalis (European corn borer) larvae assessed as adult emergence at 0.10% of diet dry weight after 6 days relative to control
# [50] = test system: Ostrinia nubilalis; test: Effect on growth of female Ostrinia nubilalis (European corn borer) larvae assessed as adult emergence at 1% of diet dry weight after 6 days relative to control
# [51] = test system: Ostrinia nubilalis; test: Effect on growth of male Ostrinia nubilalis (European corn borer) larvae assessed as adult emergence at 1% of diet dry weight after 6 days relative to control
# [52] = test system: Ostrinia nubilalis; test: Effect on growth of female Ostrinia nubilalis (European corn borer) larvae assessed as pupal duration at 0.001% of diet dry weight after 6 days relative to control
# [53] = test system: Ostrinia nubilalis; test: Effect on growth of male Ostrinia nubilalis (European corn borer) larvae assessed as pupal duration at 0.001% of diet dry weight after 6 days relative to control
# [54] = test system: Ostrinia nubilalis; test: Effect on growth of female Ostrinia nubilalis (European corn borer) larvae assessed as pupal duration at 0.01% of diet dry weight after 6 days relative to control
# [55] = test system: Ostrinia nubilalis; test: Effect on growth of male Ostrinia nubilalis (European corn borer) larvae assessed as pupal duration at 0.01% of diet dry weight after 6 days relative to control
# [56] = test system: Ostrinia nubilalis; test: Effect on growth of female Ostrinia nubilalis (European corn borer) larvae assessed as pupal duration at 0.10% of diet dry weight after 6 days relative to control
# [57] = test system: Ostrinia nubilalis; test: Effect on growth of male Ostrinia nubilalis (European corn borer) larvae assessed as pupal duration at 0.10% of diet dry weight after 6 days relative to control
# [58] = test system: Ostrinia nubilalis; test: Effect on growth of female Ostrinia nubilalis (European corn borer) larvae assessed as pupal duration at 1% of diet dry weight after 6 days relative to control
# [59] = test system: Ostrinia nubilalis; test: Effect on growth of male Ostrinia nubilalis (European corn borer) larvae assessed as pupal duration at 1% of diet dry weight after 6 days relative to control
# [60] = test system: Ostrinia nubilalis; test: Effect on growth of female Ostrinia nubilalis (European corn borer) larvae assessed as pupal weight at 0.001% of diet dry weight after 6 days relative to control
# [61] = test system: Ostrinia nubilalis; test: Effect on growth of male Ostrinia nubilalis (European corn borer) larvae assessed as pupal weight at 0.001% of diet dry weight after 6 days relative to control
# [62] = test system: Ostrinia nubilalis; test: Effect on growth of female Ostrinia nubilalis (European corn borer) larvae assessed as pupal weight at 0.01% of diet dry weight after 6 days relative to control
# [63] = test system: Ostrinia nubilalis; test: Effect on growth of male Ostrinia nubilalis (European corn borer) larvae assessed as pupal weight at 0.01% of diet dry weight after 6 days relative to control
smiles,measurement,setting,value
CC(C)=CCc1c2c(c3occ(-c4ccc(O)cc4)c(=O)c3c1O)C=CC(C)(C)O2 [OSAJIN],Activity,[1],-3%
same,Activity,[2],17%
same,Activity,[3],7%
same,Activity,[4],10.5%
same,Activity,[5],-8%
same,Activity,[6],-12%
same,Activity,[7],30.5%
same,Activity,[8],36%
same,Activity,[9],27.7%
same,Activity,[10],27.5%
same,Activity,[11],-1.4%
same,Activity,[12],2.6%
same,Activity,[13],17.6%
same,Activity,[14],10.8%
same,Activity,[15],1.9%
same,Activity,[16],-2%
same,Activity,[17],102 mg
same,Activity,[18],75 mg
same,Activity,[19],109 mg
same,Activity,[20],71 mg
same,Time,[21],11.7 days
same,Time,[22],11.4 days
same,Time,[23],12.6 days
same,Time,[24],11.4 days
same,Time,[25],11.8 days
same,Time,[26],11.4 days
same,Time,[27],12.4 days
same,Time,[28],11.3 days
same,Activity,[29],-1%
same,Activity,[30],6%
same,Activity,[31],6.3%
same,Activity,[32],1.9%
same,Activity,[33],4%
same,Activity,[34],-1%
same,Activity,[35],-1%
same,Activity,[36],4.7%
same,Activity,[37],1.7%
same,Activity,[38],3%
same,Activity,[39],-7%
same,Activity,[40],-8%
same,Activity,[41],23%
same,Activity,[42],36%
same,mortality,[43],<=7%
same,Activity,[44],54%
same,Activity,[45],71%
same,Activity,[46],44%
same,Activity,[47],50%
same,Activity,[48],50%
same,Activity,[49],71%
same,Activity,[50],85%
same,Activity,[51],43%
same,Time,[52],6.5 days
same,Time,[53],7.2 days
same,Time,[54],6.3 days
same,Time,[55],6.8 days
same,Time,[56],7.1 days
same,Time,[57],7.6 days
same,Time,[58],6.4 days
same,Time,[59],7.3 days
same,Activity,[60],103 mg
same,Activity,[61],76 mg
same,Activity,[62],104 mg
same,Activity,[63],75 mg
